Format in all cases: cell-based
Experiment [1] deals with Candida albicans ATCC 90029. Put plainly: MIC assay (CLSI M27-A3), Candida albicans ATCC 90029. To be noted: Candida albicans, read-out: MIC, Candida albicans ATCC 90029. Here is the method: (§1) After a test compound was serially diluted, an MIC (minimum inhibitory concentration) assay was performed on the standard Candida strain and an MEC (minimum effective concentration) assay on the standard Aspergillus strain. The MIC assay was performed according to the guidelines of the Clinical and Laboratory Standards Institute (CLSI M27-A3) and the MEC assay according to the guidelines of the Clinical and Laboratory Standards Institute (CLSI M38-A2).
(§2) The frozen strain was passaged at least twice, and a single colony was picked and resuspended in normal saline or sterile water in a tube. The suspension was vortexed and adjusted to 0.5 McF (1×10^6 to 5×10^6 CFU/mL) using a spectrophotometer at wavelength 530 nm. The suspension was 50-fold diluted with normal saline and then 20-fold diluted with 1×RPMI 1640 broth (1×10^3 to 5×10^3 CFU/mL). 10 μL of the suspension was applied to an SDA plate for colony counting, with a range from about 10 to 50 single colonies.
(§3) At this time, the bacterium concentration in each well should be 0.5×10^3 to 2.5×10^3 CFU/mL.
(§4) For echinocandin drugs, Aspergillus was incubated at 28° C. for 21-26 h, and then the MEC results were read.
(§5) Yeast-type fungi: A disposable sealing film was applied to the 96-well plate, and the mixture was well mixed by shaking. Observation was performed through a plate reader with the naked eye. Comparisons were made to the growth control, and the minimum compound concentration corresponding to ≥50% growth inhibition was defined as MIC. Pictures were taken and saved using an automatic plate reader.

The test system of experiment [2] is Candida parapsilosis ATCC 22019. Put plainly: MIC assay (CLSI M27-A3), Candida parapsilosis ATCC 22019. The note with it: Lodderomyces parapsilosis, ATCC22019, 24 h, read-out: MIC, Candida parapsilosis ATCC 22019. The procedure: as §1, §2, §3, §4, §5
Experiment [3] relates to Aspergillus flavus ATCC 28539. The experiment in a line: MEC assay (CLSI M38-A2), Aspergillus flavus ATCC 28539. To be noted: first batch; 28° C., 21-26 h. The procedure:
The MIC assay was performed according to the guidelines of the Clinical and Laboratory Standards Institute (CLSI M27-A3) and the MEC assay according to the guidelines of the Clinical and Laboratory Standards Institute (CLSI M38-A2).
Colonies on the plate were covered with about 1 mL of 0.85% normal saline or sterile water (polysorbate 20 was added at a final concentration of 0.1%-0.01%). […] The homogeneous upper layer of the suspension was transferred to a new sterile tube, which was then sealed and vortexed for 15 s (be careful as the suspension may produce an aerosol when the cover is removed). The concentration of the suspension was adjusted until an OD value of 0.09-0.13 was achieved using a spectrophotometer at 530 nm. […] 100 μL of sample was added to each well of the 96-well plate within 2 h after dilution (the final spore concentration in the susceptibility testing plate was at 0.4×10^4 to 5×10^4 CFU/mL).
Aspergillus: For echinocandin drugs, comparisons were made to the growth control under a plate reader, and the minimum drug concentration that could cause the hyphae to form small, round, compact hyphal particles was defined as MEC. For accurate determination of MEC values, the plate must not be vortexed before reading.

Experiment [4] relates to Meyerozyma guilliermondii ATCC 6260. The experiment in a line: MIC assay (CLSI M27-A3), Meyerozyma guilliermondii ATCC 6260. The note with it: Meyerozyma guilliermondii, read-out: MIC, Meyerozyma guilliermondii ATCC 6260. Here is the method:
as §1, §2, §3, §4, §5

In another experiment the test system is Candida krusei ATCC 6258. The experiment in a line: MIC assay (CLSI M27-A3), Candida krusei ATCC 6258. To be noted: Pichia kudriavzevii, ATCC6258, 24 h, read-out: MIC, Candida krusei ATCC 6258. The procedure:
as §1, §2, §3, §4, §5

Experiment [5] relates to Candida tropicalis ATCC 750. The experiment in a line: MIC assay (CLSI M27-A3), Candida tropicalis ATCC 750. To be noted: Candida tropicalis, read-out: MIC, Candida tropicalis ATCC 750. The procedure:
as §1, §2, §3, §4, §5

Experiment [6] deals with Candida glabrata ATCC 15126. The experiment in a line: MIC assay (CLSI M27-A3), Candida glabrata ATCC 15126. The note with it: Nakaseomyces glabratus, read-out: MIC, Candida glabrata ATCC 15126. Here is the method:
as §1, §2, §3, §4, §5

[7] abbreviates: ATCC90029, first batch, 24 h, 35° C., ≥50% growth inhibition.
Where [8] appears, read: ATCC6260, first batch, 24 h, 35° C.
Setting [9] is: ATCC750, first batch, 24 h, 35° C.
Where [10] appears, read: ATCC15126, first batch, 24 h, 35° C., ≥50% growth inhibition.

In brackets after ≈: the same amount, converted by molar mass. Like-named read-outs stand apart in the source and are kept apart here. Starred links: 1 amine or outer side, 2 acyl side, 3 side chain; linkers in the order of their positions; H or OH if unused. Positions of bridges follow the written chain, without caps; N, C: chain ends. Non-standard residues stand in square brackets, D forms with d. Residues, ends and D or L forms follow the SMILES beside them. *: point of attachment. Orn(4R-OH,5R-OCH2CH2NMe3+) = C[N+](C)(C)CCO[C@@H](N[*:3])[C@H](O)C[C@H](N[*:1])C(=O)[*:2]; pTerphenylCO(4''-OnC5H11) = CCCCCOc1ccc(-c2ccc(-c3ccc(C(=O)*)cc3)cc2)cc1; Orn(4R-OH,5R-OH) = O=C([C@H](C[C@@H](O)[C@@H](O)N[*:3])N[*:1])[*:2]; hTyr(3S-OH,4S-OH) = N[C@H](C(=O)O)[C@H](O)[C@@H](O)c1ccc(O)cc1; X1 = O=C(c1ccc(-c2ccc(-c3ccc(OCCCCCF)cc3)cc2)cc1)*; Pro(3S-OH,4S-Me) = C[C@H]1CN[C@H](C(=O)O)[C@H]1O; Hyp = O=C(O)[C@@H]1C[C@@H](O)CN1

Regarding `CCCCCOc1ccc(-c2ccc(-c3ccc(C(=O)N[C@H]4C[C@@H](O)[C@@H](OCC[N+]5(C)CCCCC5)NC(=O)[C@@H]5[C@@H](O)[C@@H](C)CN5C(=O)[C@H]([C@@H](C)O)NC(=O)[C@H]([C@H](O)[C@@H](O)c5ccc(O)cc5)NC(=O)[C@@H]5C[C@@H](O)CN5C(=O)[C@H]([C@@H](C)O)NC4=O)cc3)cc2)cc1` [Example 10], the MIC in experiment [1] (setting [7]) was found to be 0.25 µg/mL; in experiment [2], 2 µg/mL; in experiment [4] (setting [8]), 4 µg/mL; in the experiment on Candida krusei ATCC 6258, 0.5 µg/mL; in experiment [5] (setting [9]), 0.031 µg/mL; in experiment [6] (setting [10]) it was 0.5 µg/mL. Further, the “MEC, Aspergillus flavus ATCC 28539” value in experiment [3] is 0.031 µg/mL.

Turning to `CCCCCOc1ccc(-c2ccc(-c3ccc(C(=O)N[C@H]4C[C@@H](O)[C@@H](OCC[N+]5(C)CCCC5)NC(=O)[C@@H]5[C@@H](O)[C@@H](C)CN5C(=O)[C@H]([C@@H](C)O)NC(=O)[C@H]([C@H](O)[C@@H](O)c5ccc(O)cc5)NC(=O)[C@@H]5C[C@@H](O)CN5C(=O)[C@H]([C@@H](C)O)NC4=O)cc3)cc2)cc1` [Example 5], the MIC came out at 0.125 µg/mL in experiment [1] (setting [7]); 2 µg/mL in experiment [2]; 4 µg/mL in experiment [4] (setting [8]); 0.125 µg/mL in the experiment with Candida krusei ATCC 6258; 0.016 µg/mL in experiment [5] (setting [9]); 0.125 µg/mL in experiment [6] (setting [10]). In experiment [3], the “MEC, Aspergillus flavus ATCC 28539” value was determined as 0.031 µg/mL.

Regarding `CCCCCOc1ccc(-c2ccc(-c3ccc(C(=O)N[C@H]4C[C@@H](O)[C@@H](O)NC(=O)[C@@H]5[C@@H](O)[C@@H](C)CN5C(=O)[C@H]([C@@H](C)O)NC(=O)[C@H]([C@H](O)[C@@H](O)c5ccc(O)cc5)NC(=O)[C@@H]5C[C@@H](O)CN5C(=O)[C@H]([C@@H](C)O)NC4=O)cc3)cc2)cc1` [Anidulafungin, reference compound] ({pTerphenylCO(4''-OnC5H11)}-[Orn(4R-OH,5R-OH)]T[Hyp][hTyr(3S-OH,4S-OH)]T[Pro(3S-OH,4S-Me)]; lactam 1-C), the MIC turned out to be 0.016 µg/mL (≈ 0.014 µM) in experiment [1] (ATCC90029, 24 h); 0.5 µg/mL (≈ 0.438 µM) in experiment [2]; 1 µg/mL (≈ 0.877 µM) in experiment [4] (ATCC6260, 24 h); 0.063 µg/mL (≈ 0.0553 µM) in the experiment with Candida krusei ATCC 6258; 0.016 µg/mL (≈ 0.014 µM) in experiment [5] (ATCC750, 24 h); 0.125 µg/mL (≈ 0.11 µM) in experiment [6] (ATCC15126, 24 h). In experiment [3], the “MEC, Aspergillus flavus ATCC 28539” value is 0.031 µg/mL.

On to `C[C@@H](O)[C@@H]1NC(=O)[C@H]([C@H](O)[C@@H](O)c2ccc(O)cc2)NC(=O)[C@@H]2C[C@@H](O)CN2C(=O)[C@H]([C@@H](C)O)NC(=O)[C@@H](NC(=O)c2ccc(-c3ccc(-c4ccc(OCCCCCF)cc4)cc3)cc2)C[C@@H](O)[C@@H](OCC[N+](C)(C)C)NC(=O)[C@@H]2[C@@H](O)[C@@H](C)CN2C1=O` [Example 11] (X1-[Orn(4R-OH,5R-OCH2CH2NMe3+)]T[Hyp][hTyr(3S-OH,4S-OH)]T[Pro(3S-OH,4S-Me)]; lactam 1-C), for which the MIC in experiment [1] (ATCC90029, 24 h) worked out at 0.125 µg/mL; in experiment [2], 4 µg/mL; in experiment [4] (ATCC6260, 24 h), 2 µg/mL; in the experiment on Candida krusei ATCC 6258 it was 0.5 µg/mL; in experiment [5] (ATCC750, 24 h), 0.031 µg/mL; in experiment [6] (ATCC15126, 24 h), 0.5 µg/mL. In addition, the “MEC, Aspergillus flavus ATCC 28539” value in experiment [3] came out at 0.031 µg/mL.

(Values after patent US12466856B2, “Echinocandin analogues and preparation method therefor” (SHANGHAI SENHUI MEDICINE CO., LTD., priority 2019, dated 2025).)
